Source: the NIST ThermoML archive (doi:10.1016/j.fluid.2008.04.022)

Experiment: xn = mol fraction of the nth substance listed
Details: Fluid (supercritical or subcritical phases), isochoric method

FC(C(F)(F)F)C(F)(F)F [1,1,1,2,3,3,3-heptafluoropropane] + CCF
Details | mass density [kg/m3]
318.18 K, 961.3 kPa, x2 = 0.8032 | 441.9
323.18 K, 987.1 kPa, x2 = 0.8032 | 441.8
323.19 K, 1112.7 kPa, x2 = 0.739 | 520.8
328.18 K, 1011.6 kPa, x2 = 0.8032 | 441.8
328.19 K, 1144.3 kPa, x2 = 0.739 | 520.7
333.18 K, 1034.4 kPa, x2 = 0.8032 | 441.7
333.18 K, 1439.9 kPa, x2 = 0.8036 | 671.6
333.19 K, 1173.6 kPa, x2 = 0.739 | 520.7
333.19 K, 1516.7 kPa, x2 = 0.811 | 717.6
338.18 K, 1058.6 kPa, x2 = 0.8032 | 441.7
338.18 K, 1369.5 kPa, x2 = 0.44 | 660.6
338.18 K, 1481.2 kPa, x2 = 0.8036 | 671.6
338.18 K, 1560.1 kPa, x2 = 0.811 | 717.5
338.19 K, 1202.9 kPa, x2 = 0.739 | 520.7
343.18 K, 1231.3 kPa, x2 = 0.739 | 520.6
343.18 K, 1519.5 kPa, x2 = 0.8036 | 671.5
343.18 K, 1601.7 kPa, x2 = 0.811 | 717.5
343.19 K, 1081.5 kPa, x2 = 0.8032 | 441.7
343.19 K, 1413.6 kPa, x2 = 0.44 | 660.5
343.19 K, 1712.3 kPa, x2 = 0.627 | 835.4
348.15 K, 2241.8 kPa, x2 = 0.8392 | 1112.1
348.18 K, 1104.1 kPa, x2 = 0.8032 | 441.6
348.18 K, 1260.2 kPa, x2 = 0.739 | 520.6
348.18 K, 1453.8 kPa, x2 = 0.44 | 660.5
348.18 K, 1557.8 kPa, x2 = 0.8036 | 671.4
348.19 K, 1766.5 kPa, x2 = 0.627 | 835.3
348.2 K, 1643.2 kPa, x2 = 0.811 | 717.4
353.15 K, 2312 kPa, x2 = 0.8392 | 1112
353.18 K, 1127 kPa, x2 = 0.8032 | 441.6
353.18 K, 1287.6 kPa, x2 = 0.739 | 520.5
353.19 K, 1493.5 kPa, x2 = 0.44 | 660.4
353.19 K, 1594.5 kPa, x2 = 0.8036 | 671.4
353.19 K, 1683.4 kPa, x2 = 0.811 | 717.3
353.19 K, 1818 kPa, x2 = 0.627 | 835.2
358.17 K, 1314.9 kPa, x2 = 0.739 | 520.5
358.17 K, 1532 kPa, x2 = 0.44 | 660.3
358.18 K, 1148.5 kPa, x2 = 0.8032 | 441.6
358.18 K, 1631.3 kPa, x2 = 0.8036 | 671.3
358.19 K, 1722.8 kPa, x2 = 0.811 | 717.3
358.19 K, 1868.1 kPa, x2 = 0.627 | 835.2
358.23 K, 2381.4 kPa, x2 = 0.8392 | 1111.9
363.14 K, 2448.2 kPa, x2 = 0.8392 | 1111.8
363.19 K, 1171.1 kPa, x2 = 0.8032 | 441.5
363.19 K, 1569.8 kPa, x2 = 0.44 | 660.3
363.19 K, 1761.7 kPa, x2 = 0.811 | 717.2
363.19 K, 1917 kPa, x2 = 0.627 | 835.1
363.2 K, 2459.6 kPa, x2 = 0.4954 | 1290.6
363.21 K, 1667 kPa, x2 = 0.8036 | 671.3
363.31 K, 1342.8 kPa, x2 = 0.739 | 520.4
368.14 K, 1369.4 kPa, x2 = 0.739 | 520.4
368.14 K, 1800.8 kPa, x2 = 0.811 | 717.2
368.16 K, 1608 kPa, x2 = 0.44 | 660.2
368.16 K, 1966 kPa, x2 = 0.627 | 835
368.17 K, 1703 kPa, x2 = 0.8036 | 671.2
368.18 K, 2515 kPa, x2 = 0.8392 | 1111.7
368.18 K, 2548.7 kPa, x2 = 0.4954 | 1290.5
368.29 K, 1193.9 kPa, x2 = 0.8032 | 441.5
373.04 K, 1215 kPa, x2 = 0.8032 | 441.5
373.15 K, 1644.9 kPa, x2 = 0.44 | 660.2
373.16 K, 1839.4 kPa, x2 = 0.811 | 717.1
373.18 K, 1396.2 kPa, x2 = 0.739 | 520.4
373.18 K, 1738.7 kPa, x2 = 0.8036 | 671.2
373.18 K, 2580 kPa, x2 = 0.8392 | 1111.6
373.18 K, 2636.7 kPa, x2 = 0.4954 | 1290.4
373.19 K, 2014.5 kPa, x2 = 0.627 | 835
376.18 K, 2687.7 kPa, x2 = 0.4954 | 1290.3
378.17 K, 2644.8 kPa, x2 = 0.8392 | 1111.5
378.23 K, 1774.6 kPa, x2 = 0.8036 | 671.1
378.23 K, 2063.3 kPa, x2 = 0.627 | 834.9
378.25 K, 1422.5 kPa, x2 = 0.739 | 520.3
378.25 K, 1681.3 kPa, x2 = 0.44 | 660.1
378.25 K, 1876.9 kPa, x2 = 0.811 | 717
378.29 K, 1236.9 kPa, x2 = 0.8032 | 441.4
379.23 K, 2739.1 kPa, x2 = 0.4954 | 1290.3
382.19 K, 2788.4 kPa, x2 = 0.4954 | 1290.2
383.08 K, 1448.6 kPa, x2 = 0.739 | 520.3
383.17 K, 2708.3 kPa, x2 = 0.8392 | 1111.4
383.2 K, 2110.6 kPa, x2 = 0.627 | 834.8
383.21 K, 1718.2 kPa, x2 = 0.44 | 660.1
383.21 K, 1809.6 kPa, x2 = 0.8036 | 671.1
383.21 K, 1915.8 kPa, x2 = 0.811 | 717
383.22 K, 1259.2 kPa, x2 = 0.8032 | 441.4
385.22 K, 2838.9 kPa, x2 = 0.4954 | 1290.1
388.17 K, 2771 kPa, x2 = 0.8392 | 1111.3
388.18 K, 1279.7 kPa, x2 = 0.8032 | 441.3
388.18 K, 2156.7 kPa, x2 = 0.627 | 834.8
388.19 K, 1754.7 kPa, x2 = 0.44 | 660
388.19 K, 1844.5 kPa, x2 = 0.8036 | 671
388.19 K, 1953.2 kPa, x2 = 0.811 | 716.9
388.19 K, 2887.9 kPa, x2 = 0.4954 | 1290.1
388.32 K, 1475.8 kPa, x2 = 0.739 | 520.2
391.22 K, 2937.4 kPa, x2 = 0.4954 | 1290
393.18 K, 1501.3 kPa, x2 = 0.739 | 520.2
393.18 K, 1790.2 kPa, x2 = 0.44 | 660
393.18 K, 1879 kPa, x2 = 0.8036 | 670.9
393.18 K, 1990.4 kPa, x2 = 0.811 | 716.9
393.18 K, 2203.2 kPa, x2 = 0.627 | 834.7
393.21 K, 1301.7 kPa, x2 = 0.8032 | 441.3
393.22 K, 2834 kPa, x2 = 0.8392 | 1111.2
394.18 K, 2985.9 kPa, x2 = 0.4954 | 1289.9
397.15 K, 3033.4 kPa, x2 = 0.4954 | 1289.9
398.16 K, 1322.9 kPa, x2 = 0.8032 | 441.3
398.16 K, 1912.8 kPa, x2 = 0.8036 | 670.9
398.16 K, 2248.3 kPa, x2 = 0.627 | 834.6
398.17 K, 1527.2 kPa, x2 = 0.739 | 520.1
398.17 K, 1825.4 kPa, x2 = 0.44 | 659.9
398.17 K, 2027.2 kPa, x2 = 0.811 | 716.8
398.21 K, 2896 kPa, x2 = 0.8392 | 1111.2
400.15 K, 3082 kPa, x2 = 0.4954 | 1289.8
403.14 K, 1344.2 kPa, x2 = 0.8032 | 441.2
403.15 K, 1946.2 kPa, x2 = 0.8036 | 670.8
403.16 K, 1553.2 kPa, x2 = 0.739 | 520.1
403.16 K, 1860.1 kPa, x2 = 0.44 | 659.8
403.17 K, 2293.4 kPa, x2 = 0.627 | 834.5
403.19 K, 2956.6 kPa, x2 = 0.8392 | 1111.1
403.19 K, 3129.8 kPa, x2 = 0.4954 | 1289.8
403.2 K, 2063.9 kPa, x2 = 0.811 | 716.8
